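Results reflect a 48-hour exposure of cells in 96-well plates to compound at five concentrations. GI50 marks 50% less growth. At the TGI there is no net growth.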
Experiments:
Assay in all cases: NCI-60 cell line screen, 48 h
M19-MEL melanoma = tested on: M19-MEL melanoma
RXF-631 renal = tested on: RXF-631 renal
LXFL 529 NSCLC = tested on: LXFL 529 NSCLC
XF 498 CNS = tested on: XF 498 CNS
KM20L2 colon = tested on: KM20L2 colon
SNB-78 CNS = tested on: SNB-78 CNS
DMS 273 small cell lung = tested on: DMS 273 small cell lung

Structure (SMILES) | TGI (M19-MEL melanoma) [µM] | TGI (RXF-631 renal) [µM] | TGI (LXFL 529 NSCLC) [µM] | TGI (XF 498 CNS) [µM] | TGI (KM20L2 colon) [µM] | TGI (SNB-78 CNS) [µM] | TGI (DMS 273 small cell lung) [µM] | GI50 (M19-MEL melanoma) [µM] | GI50 (RXF-631 renal) [µM] | GI50 (LXFL 529 NSCLC) [µM] | GI50 (XF 498 CNS) [µM] | GI50 (SNB-78 CNS) [µM] | GI50 (DMS 273 small cell lung) [µM] | GI50 (KM20L2 colon) [µM]
NC1=NN(c2ccccc2)C(=O)C1/C(=N\NC(=O)c1cc2ccccc2cc1O)C(=O)Nc1ccc(Cl)cc1 (stereo unspecified) | 89.6 | > 100 | > 100 | > 100 | > 100 | > 100 | > 100 | – | – | – | – | – | – | –
CCOC(=O)Oc1ccc2[nH]c3c(C)cc(N)c(C)c3c2c1 | > 100 | – | – | > 100 | – | > 100 | > 100 | – | – | – | – | – | – | –
CC(C)=NO.CC(C)=NO.CC(C)=NO.CC(C)=NO.[Ti] | > 100 | > 100 | > 100 | > 100 | – | > 100 | > 100 | > 100 | > 100 | > 100 | > 100 | > 100 | > 100 | –
Nc1ccc2ncc(Nc3ccc(Cl)c(Cl)c3)nc2c1 | 47.4 | – | > 100 | 60.8 | > 100 | 74.1 | 49.5 | – | – | – | – | – | – | –
O=C(Nc1ccccc1)Oc1ccccc1C1CCCCC1 | 37.5 | – | > 100 | 35 | – | 54.9 | 42.6 | – | – | – | – | – | – | –
Cn1nc(-c2ccccc2)c(C(=O)/C=C/c2ccccc2)c(N2CCCC2)c1=O | 37.3 | > 100 | 34.4 | 39.9 | 33.4 | – | 93.1 | – | – | – | – | – | – | –
CC1=CC(=O)N2[C@H](OC[C@@H]2C(C)C)O1 | > 100 | > 100 | > 100 | > 100 | > 100 | – | – | – | – | – | – | – | – | –
CN1OC(CO)CC12C1CC3CC(C1)CC2C3 (stereo unspecified) | > 100 | – | > 100 | – | > 100 | – | > 100 | – | – | – | – | – | – | –
COc1cccc(OC)c1/C=N\N1C(=O)c2ccccc2C1=O | > 100 | > 100 | > 100 | 86.4 | 37.4 | > 100 | 84.6 | – | – | – | – | – | – | –
Cc1cc2c(=O)cc(-c3ccncc3)oc2c(C(=O)O)c1C | > 100 | > 100 | > 100 | > 100 | > 100 | > 100 | > 100 | – | – | – | – | – | – | –
CC(=O)OCC1OC(OC(C)=O)C(NC#N)C(OC(C)=O)C1OC(C)=O (stereo unspecified) | > 100 | – | > 100 | – | – | – | > 100 | – | – | – | – | – | – | –
CCNC(=O)O/N=C1/C=C2CC[C@@H]3C(CC[C@@]4(C)C3CC[C@@H]4OC(=O)NCC)[C@@]2(C)CC1 (stereo partly specified) | 10.3 | – | 3.4 | – | 5.15 | 9.3 | 5.5 | – | – | – | – | – | – | –
COC(=O)N/N=C(\c1nc2ccc(Cl)cc2[nH]c1=O)C(O)c1ccc([N+](=O)[O-])cc1 (stereo unspecified) | > 100 | > 100 | > 100 | – | > 100 | > 100 | > 100 | – | – | – | – | – | – | –
O=c1cccccc1[O-].O=c1cccccc1[O-].O=c1cccccc1[O-].[Dy+3] | – | – | – | – | > 100 | > 100 | > 100 | – | – | – | – | 15.3 | 9.28 | 18.4
O=[N+]([O-])C1(CO)COC(CCc2ccccc2)OC1 (stereo unspecified) | > 100 | – | > 100 | > 100 | > 100 | – | – | – | – | – | – | – | – | –
COC(=O)C1=C(C)C(=O)C2(CCCCCC2C(=O)OC)C1 (stereo unspecified) | > 100 | – | > 100 | – | > 100 | > 100 | > 100 | – | – | – | – | – | – | –
Cc1[nH]n(C(=O)c2ccc(Cl)cc2)c(=O)c1/C=C1\C(O)=CC(=O)c2ccccc21 | > 100 | – | > 100 | > 100 | > 100 | > 100 | – | – | – | – | – | – | – | –
Cc1c(C(=O)C/C(=N/NC(=O)CC#N)C(N)=O)[n+](=O)c2ccccc2n1[O-] | 50.7 | > 100 | > 100 | > 100 | > 100 | > 100 | > 100 | – | – | – | – | – | – | –
CC1=C2[C@@H](c3ccccc3)C3C=CC2(C=C3C(F)(F)F)N(C(=O)NC2CCCCC2)C1=O (stereo partly specified) | > 100 | > 100 | > 100 | > 100 | > 100 | > 100 | > 100 | – | – | – | – | – | – | –
